Measurements as given in patent US7138406B2, “Modulators of the glucocorticoid receptor” (Pfizer, Inc., priority 2002, dated 2006).

tested on: MMP-1 (Matrix Metalloproteinase-1) production; experiment: glucocorticoid inhibition of IL-1 induced MMP-1 production in human chondrosarcoma cells; format: cell-based; details: SW1353 human chondrosarcoma cells, 20 ng/ml IL-1 beta, 72 hours after IL-1 addition, ELISA; read-out: IC50, inhibitor of MMP1 expression
Method: (§1) This assay, the glucocorticoid inhibition of IL-1 (Interleukin-1) induced MMP-1 (Matrix Metalloproteinase-1) and IL-8 (Interleukin-8) production in human chondrosarcoma cells, is conducted as follows: SW1353 human chondrosarcoma cells (obtained from ATCC) from passage 12 through passage 19 are used in a 96 well format assay. Cells are plated at confluence into 96 well plates in DMEM (Dulbecco's Modified Eagle Medium) with 10% fetal bovine serum and incubated at 37° C., 5% CO2. After 24 hours, serum containing media is removed and replaced with 200 ul/well DMEM containing 1 mg/L insulin, 2 g/L lactalbumin hydrosylate, and 0.5 mg/L ascorbic acid and returned to incubation at 37° C., 5% CO2. […] IL-8 production is assessed using the Quantikine human IL-8 ELISA kit from R&D Systems (D8050) on samples diluted 60-fold in RD5P Calibrator Diluent, following the manufacturer's protocol. The percent of the average IL-1 control is determined for the average of each of the triplicate samples following subtraction of the average signal from untreated cells. IC50's are determined from log linear plots of the percent of control versus the concentration of inhibitor. […] MMP-1 production is assessed via the Bio-Trak MMP-1 ELISA kit from Amersham (RPN2610) on 100 ul of neat sample following the manufacturer's protocol. […]

IC50 | Structure (SMILES)
5 nM | C[C@@H]1C[C@H]2[C@@H]3CCC4=CC(=O)C=C[C@]4(C)[C@@]3(F)[C@@H](O)C[C@]2(C)[C@@]1(O)C(=O)CO [Dexamethasone, (11β,16α)-9-fluoro-11,17,21-trihydroxy-16-methylpregna-1,4-diene-3,20-dione]

tested on: not given; experiment: not given; details: not given

Structure (SMILES) | melting point
CC[C@@]12C[C@H](O)[C@](O)(c3c(F)cccc3F)C[C@H]1CCc1cc(OCc3cccnc3C)ccc12 (hydrate or solvate) [Example 56, (2R,3S,4aR,10aR)-2-(2,6-Difluoro-phenyl)-4a-ethyl-7-(2-methyl-pyridin-3-ylmethoxy)-1,2,3,4,4a,9,10,10a-octahydro-phenanthrene-2,3-diol] | 80 to 83 °C
CC[C@@]12C[C@H](O)[C@](O)(c3c(F)cccc3F)C[C@H]1CCc1cc(O)ccc12 [Example 35, (2R,3S,4aR,10aR)-2-(2,6-difluorophenyl)-4a-ethyl-1,2,3,4,4a,9,10,10a-octahydrophenanthrene-2,3,7-triol] | 198 to 200 °C
CC[C@@]12C[C@@](C)(O)[C@](O)(c3ccccc3)C[C@H]1CCc1cc(OCC(=O)O)ccc12 [Example 70, (4bR,6R,7R,8aR)-(4b-Ethyl-6,7-dihydroxy-6-methyl-7-phenyl-4b,5,6,7,8,8a,9,10-octahydro-phenanthren-2-yloxy)-acetic acid] | 190 to 191 °C
CC[C@@]12C[C@@](C)(O)[C@](O)(c3ccccc3)C[C@H]1CCc1cc(OCC(C)(C)O)ccc12 [Example 73, (2R,3R,4aR,10aR)-4a-Ethyl-7-(2-hydroxy-2-methyl-propoxy)-3-methyl-2-phenyl-1,2,3,4,4a,9,10,10a-octahydro-phenanthrene-2,3-diol] | 190 to 193 °C
CC[C@@]12C[C@@](C)(O)[C@](O)(c3ccccc3)C[C@H]1CCc1cc(OCc3nnn[nH]3)ccc12 [Example 76, (2R,3R,4aR,10aR)-4a-Ethyl-3-methyl-2-phenyl-7-(1H-tetrazol-5-ylmethoxy)-1,2,3,4,4a,9,10,10a-octahydro-phenanthrene-2,3-diol] | 108 to 110 °C

Continued, values first:

melting point | Structure (SMILES)
209 to 210 °C | CC[C@@]12C[C@H](N)[C@](O)(c3ccccc3)C[C@H]1CCc1cc(O)ccc12 [Example 41, (2R,3S,4aR,10aR)-3-Amino-4a-ethyl-2-phenyl-1,2,3,4,4a,9,10,10a-octahydro-phenanthrene-2,7-diol]
236 to 237 °C | CC[C@@]12C[C@](O)(C(C)C)[C@](O)(c3ccccc3)C[C@H]1CCc1cc(O)ccc12 [Example 49]

tested on: IL-8 (Interleukin-8) production; experiment: glucocorticoid inhibition of IL-1 induced IL-8 production in human chondrosarcoma cells; format: cell-based; details: SW1353 human chondrosarcoma cells, 20 ng/ml IL-1 beta, 24 hours after addition of IL-1, ELISA; read-out: IC50, inhibitor of IL-8 expression
Method: as §1

IC50 | Structure (SMILES)
5 nM | C[C@@H]1C[C@H]2[C@@H]3CCC4=CC(=O)C=C[C@]4(C)[C@@]3(F)[C@@H](O)C[C@]2(C)[C@@]1(O)C(=O)CO [Dexamethasone, (11β,16α)-9-fluoro-11,17,21-trihydroxy-16-methylpregna-1,4-diene-3,20-dione]
